The subject of test [1] is UACC-257 human melanoma cells. Nature of the test: Antitumor efficacy against subcutaneous-implanted melanoma xenograft. The conditions noted are these: UACC-257 xenograft, median tumor weight; Aplidine 60 μg/kg/dose IP q1d × 9, Carboplatin 50 mg/kg/dose IV q4d × 3. In kind it is in vivo, female, athymic NCr-nu/nu mice. How it is done: The animals were housed in microisolator cages, up to five per cage in a 12-hour light/dark cycle. Six-weeks-old female, athymic NCr-nu/nu mice were acclimated in the laboratories for one week prior to the experiment.
Each mouse was inoculated subcutaneously near the right flank with UACC-257 human melanoma cells from an in vitro cell culture using a 23-gauge needle. Each mouse received 2×10^7 cells resuspended in 0.2 mL of Matrigel®. A vial with UACC-257 human melanoma frozen cells was thawed and cultured in RPMI 1640 medium containing low glucose (2,000 mg/L), sodium bicarbonate ([…]), 2 mM L-glutamine, and 10% fetal bovine serum (complete medium), and grown in a +37° C. incubator in a humidified atmosphere with 5% CO2 until the necessary number of cells for inoculation of mice was obtained. Cells were harvested after four passages in culture. […] The cell count and viability were determined with a Beckman Coulter VI CELL XR cell counter and viability analyzer. […]
Animals were observed daily and clinical signed were noted. The s.c. tumors were measured and the animals were weighed twice weekly starting with the first day of treatment, Day 13. Tumor volume was determined by caliper measurements (mm) and using the formula for an ellipsoid sphere: L×W^2/2=mm^3, where L and W refer to the larger and smaller perpendicular dimensions collected at each measurement. […]

The next test relates to A549 cells. In words: MTS cytotoxicity assay, 72 hours, single agents and combinations with Aplidine. It counts as cell-based. As to conditions: A549, 72 hours drug exposure, read-out: IC50 (Molar). How it is done:
(§1) Day before plating cells all cultures were fed with fresh, complete growth media. On the harvest (plating) day cells were counted by Trypan Blue exclusion staining method (basic cell culture). Cells were harvested and seeded in 96 well microtiter plates at 10,000 cells per well in 190 μL of media and incubated for 24 hours to allow the cells to attach before drug addition. Cells were treated with the drugs and the cytotoxic effect was measured by the MTS Assay (Tetrazolium), which is a colorimetric method for determining the number of viable cells. After the 72 hours of incubation with drug, 25 μL of MTS+PMS solution was added to each microtiter well and incubated for 4 hours at 37° C. Plates were then removed from incubator and placed on plate shaker for 5 minutes (covered with aluminium foil for protection from light). Optical densities were read at 490 nm on spectrophotometer plate reader.
(§2) The microtiter plates were incubated for 72 hrs, at 5% CO2 and 37° C. The cytotoxic effect was measured by MTS Assay. Optical densities read at 490 nm. Normalized data was plotted and interpreted as described. Data was analysed as: • 1. Prism (Graphpad) software program was used to normalized the data to control values (100%=cell growth in the absence of agent (drug); 0%=blank control). • 2. Data normalized were plotted as scatter plots.
(§3) Conversely, antagonism was concluded when inhibition was lower than both maxima. […] Statistical significance was assessed by performing a student's t-test on the inhibition at each dose ratio versus the inhibition at the maximum for each drug.
(§4) As a visual aid, response values were plotted on a scatter plot with dose ratios given on the x-axis and % response values on the y-axis. […] In cases where response values at the two endpoints were approximately equivalent, points lying above or below this predicted line of additivity could be interpreted as representing antagonistic or synergistic drug interaction, respectively.

Another test has as its system MX1 cells. Described as above. It counts as cell-based. The conditions noted are these: MX1, 72 hours drug exposure, read-out: IC50 (Molar). The protocol:
as §1, §2, §3, §4

The next test has as its system MOLT3 cells. The test is described as above. In kind it is cell-based. The conditions noted are these: MOLT3, 72 hours drug exposure, read-out: IC50 (Molar). How it is done: as §1, §2, §3, §4
For another test, the system named is HL60 cells. Described as above. The conditions noted are these: HL60, 72 hours drug exposure, read-out: IC50 (Molar). It counts as cell-based. The protocol:
as §1, §2, §3, §4

A further test has as its system HT29 cells. The test is described as above. The conditions noted are these: HT29, 72 hours drug exposure, read-out: IC50 (Molar). In kind it is cell-based. The protocol:
as §1, §2, §3, §4

In a further test the test system is SKBR3 cells. The test is described as above. In kind it is cell-based. The conditions noted are these: SKBR3, 72 hours drug exposure, read-out: IC50 (Molar). The protocol: as §1, §2, §3, §4
A further test concerns PC3 cells. The description is as above. In kind it is cell-based. The conditions noted are these: PC3, 72 hours drug exposure, read-out: IC50 (Molar). The protocol:
as §1, §2, §3, §4

Some results are limits rather than exact numbers.

Usually IC50 stands for the concentration at which inhibition is half-maximal.

As to `N.N.O=C([O-])C1(C(=O)[O-])CCC1.[Pt+2]` [carboplatin], in test [1], the “% T/C on day 23” value stood at 95%. Besides, in test [1], the “% T/C on day 70” value is reported as 60%. Besides, the IC50 in the test on A549 cells was 310 µM; with MX1 cells it was greater than 100 µM; with MOLT3 cells, 4 µM; in the test with HL60 cells, 56 µM; in the test with HT29 cells, 260 µM; in the test on SKBR3 cells, 52 µM. The IC50 in the test on PC3 cells is greater than 100 µM.

The record behind these values is patent publication US8258098B2, “Antitumoral treatments” (Pharma Mar, S.A., priority 2006, dated 2012).
